Values joined by “and” are separate entries in the source; they are usually repeats but may differ in a detail not shown here. Equal entries are not always repeated.
Legend:
[1] = system: oil palm fruit; conditions: postharvest application; cited from earlier work
[2] = system: oil palm fruit; assay: Field study of fruit abscission (cumulative loose fruit and loose mass) after a single bunch-directed preharvest spray; type: in vivo, oil palm (cross between Compact and Ghana); conditions: for Cumulative Loose Mass / % Difference with UTC (Cumulative Loose Fruit) / % Difference with UTC (Cumulative Loose Mass) / Cumulative Loose Fruit: single spray 100 mL/bunch; for Cumulative Loose Mass / % Difference with UTC (Cumulative Loose Fruit) / % Difference with UTC (Cumulative Loose Mass): 14 days; for % Difference with UTC (Cumulative Loose Fruit) / % Difference with UTC (Cumulative Loose Mass): vs untreated control; for Cumulative Loose Fruit: counted for 14 days
Experimental: A study was conducted in a plantation in Costa Rica to compare the effects of single bunch-directed applications of: (1) untreated control (water sprayed); (2) AVG at 500 ppm (59.5 g) active ingredient (a.i.); (3) 20 ppm (2.4 g) a.i. of 1-MCP; (4) 67 ppm (8.0 g) a.i. of 1-MCP; and (5) 200 ppm (23.8 g) a.i. of 1-MCP. Total g a.i./ha for each treatment was calculated assuming 7 bunches per palm and 170 palms per ha. In this study, AVG and 1-MCP were provided in a formulation as AVG-HC1 and 1-MCP at concentrations of 20% and 1.3%, respectively.
For each treatment, 27 palms were randomly selected covering about 15 hectares. The variety of plants used was a cross between Compact and Ghana. The plants were three years old at the time of treatment. A CO2 sprayer was used to spray all treatments (100 mL/bunch) to bunches with 1 to 4 loose fruits. The time required to spray each bunch was about 8 seconds at 20 psi using a 2.0 full cone nozzle. The treatments were applied once per bunch. Four, six, four, three and ten bunches per treatment were sprayed on Feb. 6, 13, 20, 27 and Mar. 3, 2015, respectively.
Cumulative loose fruit (CLF) and cumulative loose mass (CLM) counts were determined on a daily basis for 14 days with the exception of days 2 and 9 after initial spray as measure to objectively quantify fruit abscission. An electronic balance was used to weigh all fruit. All loose fruit on the bunch, branches and on the ground was counted and weighted.

[3] = system: oil palm fruit; conditions: preharvest application to attached bunches; cited from earlier work

Compound	Effect on oil content [1]	Effect on ripening of oil palm fruit [1]	Cumulative Loose Mass ([2]; 20 ppm (2.4 g a.i./ha))	% Difference with UTC (Cumulative Loose Fruit) ([2]; 20 ppm (2.4 g a.i./ha))	% Difference with UTC (Cumulative Loose Mass) ([2]; 20 ppm (2.4 g a.i./ha))	Cumulative Loose Fruit ([2]; 20 ppm (2.4 g a.i./ha))	Cumulative Loose Mass ([2]; 67 ppm (8.0 g a.i./ha))	% Difference with UTC (Cumulative Loose Fruit) ([2]; 67 ppm (8.0 g a.i./ha))	% Difference with UTC (Cumulative Loose Mass) ([2]; 67 ppm (8.0 g a.i./ha))	Cumulative Loose Fruit ([2]; 67 ppm (8.0 g a.i./ha))	Cumulative Loose Mass ([2]; 200 ppm (23.8 g a.i./ha))	% Difference with UTC (Cumulative Loose Fruit) ([2]; 200 ppm (23.8 g a.i./ha))	% Difference with UTC (Cumulative Loose Mass) ([2]; 200 ppm (23.8 g a.i./ha))	Cumulative Loose Fruit ([2]; 200 ppm (23.8 g a.i./ha))	Effect on oil palm fruit drop ([2]; preharvest bunch spray, 20, 67 and 200 ppm)	Increase of oil content [3]
CC1=CC1 [1-MCP, 1-methylcyclopropene]	reduced oil content	delayed ripening	1465 g	6.7%	17.1%	138.8	1163 g	28.6%	34.2%	106.2	1149 g	29.6%	36.0% and 35.0%	104.7	delayed palm oil fruit drop	
O=P(O)(O)CCCl [ethephon, 2-chloroethyl phosphonic acid]																7%

Source: US9538749B2, “Methods for increasing oil palm yield” (Valent BioSciences Corporation, priority 2014, dated 2017)
